Where two headings read alike, the source gives them in different places.
Key:
Assay type in all cases: cell-based, human
[1] = test system: non-senescent control A549 cells; assay: Nuclei count senolytic assay, TIS model, non-senescent control cells; conditions: Homo sapiens, A549, Control cells, mean, read-out: Mean % Cell Survival; for viability at 10 µM: log (dose) [M] -5; for viability at 4.68 µM: log (dose) [M] -5.33; for viability at 2.19 µM: log (dose) [M] -5.66; for viability at 1 µM: log (dose) [M] -6; for viability at 0.468 µM: log (dose) [M] -6.33; for viability at 0.219 µM: log (dose) [M] -6.66; for viability at 0.1 µM: log (dose) [M] -7; for viability at 0.0468 µM: log (dose) [M] -7.33; for viability at 0.0219 µM: log (dose) [M] -7.66; for viability at 0.01 µM: log (dose) [M] -8
In short: (§1)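 A549 cells were made senescent with 100 μM etoposide for 48 h, then kept three days in normal media; non-senescent A549 served as controls. Compounds were dosed as a 10-point […] series (10 μM to 10 nM final) for 72 h in triplicate. Hoechst-stained nuclei were counted by imaging after fixation.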

[2] = test system: senescent A549 cells (etoposide-induced); assay: Nuclei count senolytic assay, therapy-induced senescence (TIS) model, senescent cells; conditions: Homo sapiens, A549, Senescent cells, mean, read-out: Mean % Cell Survival; for viability at 10 µM: log (dose) [M] -5; for viability at 4.68 µM: log (dose) [M] -5.33; for viability at 2.19 µM: log (dose) [M] -5.66; for viability at 1 µM: log (dose) [M] -6; for viability at 0.468 µM: log (dose) [M] -6.33; for viability at 0.219 µM: log (dose) [M] -6.66; for viability at 0.1 µM: log (dose) [M] -7; for viability at 0.0468 µM: log (dose) [M] -7.33; for viability at 0.0219 µM: log (dose) [M] -7.66; for viability at 0.01 µM: log (dose) [M] -8
In short: as §1

[3] = test system: senescent IMR90 ER:RAS cells (4-OHT-induced); assay: Nuclei count (Hoechst, high content imaging) senolytic assay, oncogene-induced senescence (OIS) model, senescent cells; conditions: Homo sapiens; for viability at 1 µM: log (dose) [M] -6, 72 h; for viability at 0.4677 µM: log (dose) [M] -6.33, 72 h
In short: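 Senescence in IMR90 ER:RAS fibroblasts induced with 100 nM 4-OHT; non-senescent and senescent cells treated 72 h with compounds, 10-point […] range 10 μM–10 nM, triplicate. Cells fixed, permeabilised, Hoechst-stained; total nuclei per well counted by high-content imaging versus untreated controls as cell-death readout.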

[4] = IMR-90, 72 h, Senescent, log (dose) [M] -5, 72 h, mean n=3 (Fig 3C), read-out: Mean % Cell Survival
[5] = IMR-90, 72 h, Senescent, log (dose) [M] -5.33, 72 h, mean n=3 (Fig 3C), read-out: Mean % Cell Survival
[6] = IMR-90, 72 h, Senescent, log (dose) [M] -5.66, 72 h, mean n=3 (Fig 3C), read-out: Mean % Cell Survival
[7] = IMR-90, 72 h, Senescent, mean n=3 (Fig 3C), read-out: Mean % Cell Survival
[8] = IMR-90, 72 h, Senescent, log (dose) [M] -6.66, 72 h, mean n=3 (Fig 3C), read-out: Mean % Cell Survival
[9] = IMR-90, 72 h, Senescent, log (dose) [M] -7, 72 h, mean n=3 (Fig 3C), read-out: Mean % Cell Survival
[10] = IMR-90, 72 h, Senescent, log (dose) [M] -7.33, 72 h, mean n=3 (Fig 3C), read-out: Mean % Cell Survival
[11] = IMR-90, 72 h, Senescent, log (dose) [M] -7.66, 72 h, mean n=3 (Fig 3C), read-out: Mean % Cell Survival
[12] = IMR-90, 72 h, Senescent, log (dose) [M] -8, 72 h, mean n=3 (Fig 3C), read-out: Mean % Cell Survival
[13] = IMR-90, Senescent cells, log (dose) [M] -5.33, individual replicates, SUP FIG 4C, read-out: % Cell Survival
[14] = IMR-90, Senescent cells, log (dose) [M] -7.66, individual replicates, SUP FIG 4C, read-out: % Cell Survival
[15] = IMR-90, Senescent, log (dose) [M] -8, read-out: % Cell Survival

Row | Structure (SMILES) | viability at 10 µM [1] [%] | viability at 4.68 µM [1] [%] | viability at 2.19 µM [1] [%] | viability at 1 µM [1] [%] | viability at 0.468 µM [1] [%] | viability at 0.219 µM [1] [%] | viability at 0.1 µM [1] [%] | viability at 0.0468 µM [1] [%] | viability at 0.0219 µM [1] [%] | viability at 0.01 µM [1] [%] | viability at 10 µM [2] [%] | viability at 4.68 µM [2] [%] | viability at 2.19 µM [2] [%] | viability at 1 µM [2] [%] | viability at 0.468 µM [2] [%] | viability at 0.219 µM [2] [%] | viability at 0.1 µM [2] [%] | viability at 0.0468 µM [2] [%] | viability at 0.0219 µM [2] [%] | viability at 0.01 µM [2] [%] | further results
1 | CO[C@H]1C[C@@H]2CC[C@@H](C)[C@@](O)(O2)C(=O)C(=O)N2CCCC[C@H]2C(=O)O[C@H]([C@H](C)C[C@@H]2CC[C@@H](O)[C@H](OC)C2)CC(=O)[C@H](C)/C=C(\C)[C@@H](O)[C@@H](OC)C(=O)[C@H](C)C[C@H](C)/C=C/C=C/C=C/1C [Rapamycin, rapamycin, reference compound] | 74.6 | 60.2 | 54 | 104 | 117 | 122 | 128 | 102 | 117 | 116 | 212 | 215 | 208 | 228 | 246 | 228 | 250 | 249 | 69.5 | 93.7 | viability at 10 µM [3, 4]: 98.4%; viability at 4.677 µM [3, 5]: 103%; viability at 2.188 µM [3, 6]: 114%; viability at 1 µM [3, 7]: 90.6%; viability at 0.4677 µM [3, 7]: 101%; viability at 0.2188 µM [3, 8]: 97.8%; viability at 0.1 µM [3, 9]: 92.6%; viability at 0.04677 µM [3, 10]: 105%; viability at 0.02188 µM [3, 11]: 93.9%; viability at 0.01 µM [3, 12]: 92%; viability at 10 µM ([3]; IMR-90, Senescent cells, log (dose) [M] -5, individual replicates, SUP FIG 4C, read-out: % Cell Survival): 94.1%; viability at 4.677 µM [3, 13]: 113%; viability at 0.2188 µM ([3]; IMR-90, Senescent cells, log (dose) [M] -6.66, individual replicates, SUP FIG 4C, read-out: % Cell Survival): 104%; viability at 0.1 µM ([3]; IMR-90, Senescent cells, log (dose) [M] -7, individual replicates, SUP FIG 4C, read-out: % Cell Survival): 95.9%; viability at 0.04677 µM ([3]; IMR-90, Senescent cells, log (dose) [M] -7.33, individual replicates, SUP FIG 4C, read-out: % Cell Survival): 107%; viability at 0.02188 µM [3, 14]: 102%; viability at 0.01 µM ([3]; IMR-90, Senescent cells, log (dose) [M] -8, individual replicates, SUP FIG 4C, read-out: % Cell Survival): 88.4%
2 | CO[C@H]1C[C@@H]2CC[C@@H](C)[C@@](O)(O2)C(=O)C(=O)N2CCCC[C@H]2C(=O)O[C@H]([C@H](C)C[C@@H]2CC[C@@H](OP(C)(C)=O)[C@H](OC)C2)CC(=O)[C@H](C)/C=C(\C)[C@@H](O)[C@@H](OC)C(=O)[C@H](C)C[C@H](C)/C=C/C=C/C=C/1C [Ridaforolimus, ridaforolimus, reference compound] | 110 | 121 | 69 | 65.1 | 96 | 102 | 97.4 | 108 | 74.4 | 107 | 162 | 174 | 157 | 66.9 | 113 | 102 | 60.6 | 60.9 | 84.7 | 87.1 | viability at 10 µM [3, 4]: 122%; viability at 4.677 µM [3, 5]: 144%; viability at 2.188 µM [3, 6]: 164%; viability at 1 µM [3, 7]: 156%; viability at 0.4677 µM [3, 7]: 160%; viability at 0.2188 µM [3, 8]: 156%; viability at 0.1 µM [3, 9]: 126%; viability at 0.04677 µM [3, 10]: 128%; viability at 0.02188 µM [3, 11]: 131%; viability at 0.01 µM [3, 12]: 105%; viability at 2.188 µM ([3]; IMR-90, Senescent cells, log (dose) [M] -5.66, individual replicates, SUP FIG 4C, read-out: % Cell Survival): 166%; viability at 0.02188 µM [3, 14]: 129%; viability at 0.02188 µM ([3]; IMR-90, Senescent, log (dose) [M] -7.66, read-out: % Cell Survival): 81.7%; viability at 0.01 µM [3, 15]: 78.7%
3 | O=c1cc(-c2ccc(O)cc2)oc2cc(O)c(O)c(O)c12 [Scutellarein, scutellarein] | 111 | 112 | 105 | 108 | 102 | 109 | 102 | 99.3 | 98.3 | 99.7 | 108 | 104 | 105 | 135 | 106 | 103 | 81.8 | 88.6 | 97.4 | 91.3 | viability at 10 µM [3, 4]: 124%; viability at 4.677 µM [3, 5]: 124%; viability at 2.188 µM [3, 6]: 132%; viability at 1 µM [3, 7]: 124%; viability at 0.4677 µM [3, 7]: 137%; viability at 0.2188 µM [3, 8]: 132%; viability at 0.1 µM [3, 9]: 115%; viability at 0.04677 µM [3, 10]: 122%; viability at 0.02188 µM [3, 11]: 106%; viability at 0.01 µM [3, 12]: 100%; viability at 4.677 µM [3, 13]: 129%; viability at 0.2188 µM ([3]; IMR-90, Senescent, log (dose) [M] -6.66, read-out: % Cell Survival): 97.8%; viability at 0.04677 µM ([3]; IMR-90, Senescent, log (dose) [M] -7.33, read-out: % Cell Survival): 91.2%; viability at 0.01 µM [3, 15]: 100%

Source: paper PMC10257182, “Discovery of senolytics using machine learning” (Nature Communications, 2023)
